Measured values from the supplement of paper PMC10307832.

Assays:
Experiment in all cases: relative viability (nuclei count vs DMSO), 5 days (fraction); higher = more cells survive
[1] = compound: O=S(=O)(c1ccccc1)N(CC(F)(F)F)c1ccc(C(O)(C(F)(F)F)C(F)(F)F)cc1 + CS(=O)(=O)N1CCN(Cc2cc3nc(-c4cccc5[nH]ncc45)nc(N4CCOCC4)c3s2)CC1 [Pictilisib] (partner 1 µM)
How it was run: (§1)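 Relative viability divides the nuclei count in treated wells by that in vehicle wells. Lung cancer cell lines were seeded in 1536-well plates, dosed by pin tool the next day, and fixed and stained after 5 days in one step with final 0.05% Triton X-100, 1% formaldehyde and 1 ug/ml Hoechst. Dosing was a single drug or a fixed anchor-drug dose plus five library-drug doses (not always all listed) in √10 steps, and values are medians of duplicate plates imaged at 4×.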

RO-3306 + Bortezomib = compound: C1=CC2=C(C=CC(=C2)C=C3C(=O)NC(=NCC4=CC=CS4)S3)N=C1 [RO-3306] + CC(C)C[C@H](NC(=O)[C@H](Cc1ccccc1)NC(=O)c1cnccn1)B(O)O [Bortezomib] (partner 0.002 µM)
How it was run: as §1

RO-3306 + OSI-027 = compound: C1=CC2=C(C=CC(=C2)C=C3C(=O)NC(=NCC4=CC=CS4)S3)N=C1 [RO-3306] + COc1cccc2cc(-c3nc([C@H]4CC[C@H](C(=O)O)CC4)n4ncnc(N)c34)[nH]c12 [OSI-027] (partner 0.5 µM)
How it was run: as §1

RO-3306 + Navitoclax = compound: C1=CC2=C(C=CC(=C2)C=C3C(=O)NC(=NCC4=CC=CS4)S3)N=C1 [RO-3306] + CC1(C)CCC(c2ccc(Cl)cc2)=C(CN2CCN(c3ccc(C(=O)NS(=O)(=O)c4ccc(N[C@H](CCN5CCOCC5)CSc5ccccc5)c(S(=O)(=O)C(F)(F)F)c4)cc3)CC2)C1 [Navitoclax] (partner 0.5 µM)
How it was run: as §1

Cell Line	relative viability ([1]; first compound 0.8 µM)	relative viability ([1]; first compound 2.53 µM)	relative viability ([1]; first compound 8 µM)	relative viability (RO-3306 + Bortezomib; first compound 0.01 µM)	relative viability (RO-3306 + Bortezomib; first compound 0.03162 µM)	relative viability (RO-3306 + Bortezomib; first compound 0.1 µM)	relative viability (RO-3306 + Bortezomib; first compound 0.3162 µM)	relative viability (RO-3306 + Bortezomib; first compound 1 µM)	relative viability (RO-3306 + OSI-027; first compound 0.01 µM)	relative viability (RO-3306 + OSI-027; first compound 0.03162 µM)	relative viability (RO-3306 + OSI-027; first compound 0.1 µM)	relative viability (RO-3306 + OSI-027; first compound 0.3162 µM)	relative viability (RO-3306 + OSI-027; first compound 1 µM)	relative viability (RO-3306 + Navitoclax; first compound 0.01 µM)	relative viability (RO-3306 + Navitoclax; first compound 0.03162 µM)	relative viability (RO-3306 + Navitoclax; first compound 0.1 µM)	relative viability (RO-3306 + Navitoclax; first compound 0.3162 µM)	relative viability (RO-3306 + Navitoclax; first compound 1 µM)
NCI-H2228	0.414	0.366	0.26	0.937	0.47	0.917	0.893	0.636	0.652	0.411	0.557	0.685	0.429	1.19	0.805	0.673	1.07	0.62
EMC-BAC-2	0.626	0.561	0.634	1.21	0.912	1.11	1.06	1.01	0.306	0.36	0.358	0.352	0.315	1.44	0.984	1.25	1.24	1.14
NCI-H2085	0.428	0.543	0.455	1.09	0.956	0.935	0.993	1.04	0.598	0.728	0.642	0.664	0.635	1.12	1.08	1.09	1.17	1.07
RERF-LC-KJ	0.557	0.453	0.5	1.3	0.952	1.01	0.987	1.01	0.632	0.53	0.556	0.598	0.556	1.36	1.03	0.815	0.684	0.997
NCI-H3122	0.477	0.447	0.416	0.952	1.01	1.06	1.03	0.738	1.11	0.849	1.03	1.03	1.01	1.03	1.03	0.983	1.05	1.07
CAL-12T		0.342	0.542	0.956			0.992	1.09	0.378	0.615	0.585	0.616	0.597	1.01	1.07	1.32	1.16	1.13
NCI-H2023	0.183	0.221	0.193	1.01	0.795	0.979	1.13	1.07	0.429	0.373	0.36	0.419	0.283	1.05	0.912	0.898	0.943	1.01
NCI-H1792	0.191	0.184	0.165	1.17		0.95	0.991	0.538	0.896		0.743	0.81	0.551	0.74		0.614	0.599	0.311
HCC-78	0.157	0.193	0.252	0.433	0.362	0.511	0.572	0.543	0.324	0.401	0.384	0.404	0.329	0.814	0.767	0.675	0.92	0.682
PC-3 [JPC-3]	0.737	0.829	0.697	0.936	0.82	0.965	0.865	0.805	0.851	0.718	0.787	0.681	0.741	1.04	0.697	0.816	0.805	0.745
NCI-H2126	0.489	0.513	0.5	1.14	1.18	1.12	1.05	1	0.627	0.597	0.707	0.708	0.727	0.868	0.816	0.822	0.858	0.756
NCI-H460	0.436	0.333	0.362	1.37		1.1	1.34	0.776	0.613	0.492	0.654	0.835	0.605	1.26		1.26	1.35	1.22
HCC-827	1.08	1.05	1.05	0.995	0.907	1.13	1.02	1.04	0.855	0.59	0.808	0.8	0.8	1.04	0.988	0.99	0.994	0.998
NCI-H838	0.46	0.403	0.642	0.825	0.523	0.661	0.808	0.685	0.334	0.394	0.35	0.412	0.373	1.26	1.14	1.17	1.19	1.21
SW 1573	0.504	0.38	0.45	1.22		0.924	0.972	0.894	0.683		0.603	0.607	0.578	0.838		0.892	0.886	0.966
NCI-H2347	0.516	0.597	0.81	1.07	0.633	0.98	0.823	0.711	0.449	0.404	0.421	0.249	0.356	0.947	0.645	1.03	0.772	0.93
HARA	0.43	0.317	0.293	1.15	0.74	1.11	1.11	0.991	0.661	0.449	0.527	0.612	0.436	1.16	1.11	1.17	1.12	1.37
NCI-H1355	0.415	0.389	0.491	1.5	1.15	1.17	1.18	1.2	0.379		0.378	0.375	0.337	1.12	0.915	0.949	1.04	0.946

Cell Line	relative viability ([1]; first compound 0.8 µM)	relative viability ([1]; first compound 2.53 µM)	relative viability ([1]; first compound 8 µM)	relative viability (RO-3306 + Bortezomib; first compound 0.01 µM)	relative viability (RO-3306 + Bortezomib; first compound 0.03162 µM)	relative viability (RO-3306 + Bortezomib; first compound 0.1 µM)	relative viability (RO-3306 + Bortezomib; first compound 0.3162 µM)	relative viability (RO-3306 + Bortezomib; first compound 1 µM)	relative viability (RO-3306 + OSI-027; first compound 0.01 µM)	relative viability (RO-3306 + OSI-027; first compound 0.03162 µM)	relative viability (RO-3306 + OSI-027; first compound 0.1 µM)	relative viability (RO-3306 + OSI-027; first compound 0.3162 µM)	relative viability (RO-3306 + OSI-027; first compound 1 µM)	relative viability (RO-3306 + Navitoclax; first compound 0.01 µM)	relative viability (RO-3306 + Navitoclax; first compound 0.03162 µM)	relative viability (RO-3306 + Navitoclax; first compound 0.1 µM)	relative viability (RO-3306 + Navitoclax; first compound 0.3162 µM)	relative viability (RO-3306 + Navitoclax; first compound 1 µM)
NCI-H1437	0.374	0.327	0.412	0.57	0.346	0.529	0.582	0.484	0.936	0.814	0.825	0.912	0.878	1.16	0.996	1.05	1.13	1.1
HOP-62	1.07	0.361	0.763	0.505	0.961	0.674	0.882	1.03	0.827	0.593	0.727	0.89	0.8	1.14	1.01	1.07	0.937	1.33
EKVX	0.367	0.363	0.303	1.23	0.923	1.06	1.12	0.989	0.757	0.646	0.661	0.955	0.684	1.02	0.94	1.06	0.971	0.921
NCI-H1666	0.434	0.418	0.398	0.848	0.734	0.713	0.765	0.598	0.747	0.73	0.749	0.817	0.853	0.954	0.871	0.858	0.86	0.779
201T	0.632	0.628	0.82	1.11	1.11	1.07	1.11	0.934	0.586	0.729	0.709	0.779	0.672	1.2	1.21	1.14	1.23	1.23
COR-L 105	0.44	0.397	0.418	0.792	0.718	0.777	0.822	0.622	0.589	0.607	0.64	0.864	0.735	0.823	0.814	0.742	0.842	0.688
NCI-H1755	0.376	0.361	0.382	1.13	0.983	0.976	0.936	0.978	0.777	0.736	0.652	0.702	0.635	1.1	0.919	1.04	1.01	1.05
NCI-H520	0.31	0.258	0.387	0.802	0.369	0.5	0.582	0.435	0.288	0.283	0.225	0.254	0.304	1.27	1.13	1.13	1.01	0.942
NCI-H1650	0.69	0.588	0.534	0.204	0.184	0.181	0.192	0.185	0.715	0.409	0.516	0.637	0.587	1.15	1.11	1.19	1.19	0.974
SK-LU-1	0.531	0.454	0.594	0.767	0.932	1.08	1.34	0.853	0.283	0.285	0.325	0.314	0.339	1.08	0.837	0.774	0.926	0.832
NCI-H441	0.523	0.401	0.495	0.771	0.4	0.647	0.449	0.31	0.555	0.506	0.541	0.617	0.534	0.593	0.71	0.382	0.57	0.364
EPLC-272H	0.316	0.302	0.35	0.735	0.526	0.825	0.769	0.843	0.259	0.252	0.29	0.223	0.283	1.15	0.92	1.02	1.11	0.994
HCC-366	0.181	0.165	0.135	1.05	0.633	1.01	1.16	1.06	1.13	1.06	0.847	0.955	0.654	1.22	0.943	0.991	1.14	1.15
PC-14	0.743	0.557	0.339	1.16		0.991	0.941	0.865	0.895	0.609	0.76	1.37	0.86	1.11		1.06	1.19	1.18
LU99A	0.296	0.293	0.271	1.38	1.09	1.04	0.98	1.07	0.296	0.284	0.297	0.317	0.274	0.916	0.708	0.866	0.747	0.803
ChaGo-K-1	0.647	0.693	1.24	1.01	0.935	0.656	0.756	0.673	0.59	0.365	0.455	0.474	0.341	0.971	1.23	0.629	0.952	0.675
NCI-H2087	0.868	0.993	0.848	0.726	0.843	0.729	0.947	0.738	0.534	0.462	0.529	0.539	0.538	0.999	1.15	0.995	1.08	0.937
BEN	0.585	0.533	0.616	0.795	0.724	0.867	0.849	0.747	0.333	0.3	0.256	0.297	0.283	0.057	0.0628	0.0739	0.0677	0.0527
